Laboratory results as given in the NIST ThermoML archive (doi:10.1021/je700191v).
± gives the expanded uncertainty stated by the source.

Assay: mn = molality of the nth substance listed, in mol/kg
Details: 101 kPa, Liquid

CC1(C)S[C@@H]2[C@H](NC(=O)Cc3ccccc3)C(=O)N2[C@H]1C(=O)[O-].[K+] + O
mass density [kg/m3]
Details	293.15 K	298.15 K	303.15 K	308.15 K
m1 = 0.01891	1000.62 ± 0.35	999.45 ± 0.35	–	–
m1 = 0.01952	–	–	998.081 ± 0.35	996.399 ± 0.36
m1 = 0.03888	–	–	1000.47 ± 0.35	998.73 ± 0.35
m1 = 0.03922	1003.15 ± 0.36	1001.98 ± 0.35	–	–
m1 = 0.05831	–	–	1002.85 ± 0.36	1001.06 ± 0.35
m1 = 0.05967	1005.7 ± 0.37	1004.5 ± 0.36	–	–
m1 = 0.07995	–	–	1005.48 ± 0.37	1003.59 ± 0.36
m1 = 0.08039	1008.26 ± 0.38	1007.04 ± 0.38	–	–
m1 = 0.1	–	–	1007.88 ± 0.38	1006.02 ± 0.37
m1 = 0.1008	1010.74 ± 0.39	1009.5 ± 0.39	–	–
m1 = 0.1193	–	–	1010.19 ± 0.39	1008.28 ± 0.38
m1 = 0.1217	1013.28 ± 0.4	1011.99 ± 0.39	–	–
